The text below walks through data of patent publication US11780812B2, “Oxopyridine derivatives useful as aminocarboxymuconate semialdehyde decarboxylase (ACMSD) inhibitors” (OrsoBio, Inc., priority 2016, dated 2023).

One may read the IC50 as the concentration that inhibits the measured activity by half.

The assay deals with human ACMSD (Homo sapiens (Human), UniProt Q8TDX5). Description: Human ACMSD-1 inhibitor assay (coupled 3-HAO/ACMSD, absorbance at 360 nm). To be noted: read-out: hACMSD IC50; human ACMSD 6 μg/ml, 50 mM MES pH 6.0, 28° C., four-parameter dose-response fit.
Chain of human ACMSD (Q8TDX5 whole entry): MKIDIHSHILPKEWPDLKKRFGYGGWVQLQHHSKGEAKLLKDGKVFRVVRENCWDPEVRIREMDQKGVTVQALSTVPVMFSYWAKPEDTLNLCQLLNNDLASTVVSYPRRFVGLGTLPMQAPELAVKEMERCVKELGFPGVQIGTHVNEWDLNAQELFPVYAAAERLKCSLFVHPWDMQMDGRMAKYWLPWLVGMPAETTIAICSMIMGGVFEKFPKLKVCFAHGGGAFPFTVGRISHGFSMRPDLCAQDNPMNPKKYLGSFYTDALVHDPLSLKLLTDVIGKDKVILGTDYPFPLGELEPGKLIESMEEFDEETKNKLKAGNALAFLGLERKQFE
Method: A solution of 7.8 μg/ml 3-hydroxyanthranilate 3,4-dioxygenase (3-HAO) with protein dilution buffer (50 mM 4-Morpholineethanesulfonic acid “MES” pH 6.0) and a solution of 6 μg/ml Human 2-amino-3-carboxymuconate-6-semialdehyde decarboxylase (human ACMSD) with protein dilution buffer (50 mM MES pH 6.0) were prepared separately. A serial 2-fold dilution of test compounds, from 512 nM until 0.5 nM were prepared.
The plate was placed into a SpectraMax Plus 384 Microplate Reader, Molecular Devices with the temperature set to 28° C. The absorbance at 360 nm for 10 min with 10 seconds interval was monitored and recorded.
To a 96-well plate was added 50 μl of 6 μg/ml human ACMSD with series concentrations of the test compound. The absorbance was recorded at 360 nm for 10 min with 10 seconds interval. The data was analyzed in GraphPad Prism 6. A four-parameter dose-response curve was fitted. “Hill Slope” was constrained between −0.5 and −3, and such constrains was indicated when applied.
For the compound `N#Cc1c(C(F)(F)F)cc(=O)[nH]c1SCc1nnn[nH]1` [Ex. 43, 2-(((1H-tetrazol-5-yl)methyl)thio)-6-oxo-4-(trifluoromethyl)-1,6-dihydropyridine-3-carbonitrile], the IC50 turned out to be 4 nM.

For the compound `Cc1ccc(C(=O)O)cc1CSc1[nH]c(=O)cc(C(F)(F)F)c1C#N` [Ex. 44, 3-((3-cyano-6-oxo-4-(trifluoromethyl)-1,6-dihydropyridin-2-ylthio)methyl)-4-methylbenzoic acid], the IC50 turned out to be 510 nM. With `N#Cc1c(C(F)(F)F)cc(=O)[nH]c1SCc1cc(-c2nnn[nH]2)ccc1Cl` [Ex. 45, 2-(2-chloro-5-(1H-tetrazol-5-yl)benzylthio)-6-oxo-4-(trifluoromethyl)-1,6-dihydropyridine-3-carbonitrile] the figure was 4 nM; with `COc1c(C(F)(F)F)c(C#N)c(SCC(=O)O)[nH]c1=O` [Ex. 46, 2-(3-cyano-5-methoxy-6-oxo-4-(trifluoromethyl)-1,6-dihydropyridin-2-ylthio)acetic acid], 8 nM. Consider `Cc1c(C(F)(F)F)c(C#N)c(SCc2nnn[nH]2)[nH]c1=O` [Ex. 47, 2-(((1H-tetrazol-5-yl)methyl)thio)-5-methyl-6-oxo-4-(trifluoromethyl)-1,6-dihydropyridine-3-carbonitrile], for which the IC50 turned out to be 7 nM.

For `N#Cc1c(SCc2nnn[nH]2)[nH]c(=O)c(F)c1C(F)(F)F` [Ex. 48, 2-((1H-tetrazol-5-yl)methylthio)-5-fluoro-6-oxo-4-(trifluoromethyl)-1,6-dihydropyridine-3-carbonitrile], the IC50 was determined as 2 nM.

For `N#Cc1c(-c2cccs2)cc(=O)[nH]c1SCc1cccc(-c2nnn[nH]2)c1` [Ex. 49, 2-((3-(1H-tetrazol-5-yl)benzyl)thio)-6-oxo-4-(thiophen-2-yl)-1,6-dihydropyridine-3-carbonitrile], the IC50 was 6 nM. With `N#Cc1c(-c2ccccc2)cc(=O)[nH]c1SCc1cccc(-c2nnn[nH]2)c1` [Ex. 50, 2-((3-(1H-tetrazol-5-yl)benzyl)thio)-6-oxo-4-phenyl-1,6-dihydropyridine-3-carbonitrile] the figure was 3 nM; with `O=c1cc(C(F)(F)F)cc(SCc2nnn[nH]2)[nH]1` [Ex. 52, 6-((1H-tetrazol-5-yl)methylthio)-4-(trifluoromethyl)pyridin-2(1H)-one], 130 nM; with `N#Cc1c(Cc2ccccc2)cc(=O)[nH]c1SCc1nn[nH]n1` [Ex. 53, 2-(((2H-tetrazol-5-yl)methyl)thio)-4-benzyl-6-oxo-1,6-dihydropyridine-3-carbonitrile], 2 nM. `N#Cc1c(-c2ccsc2)cc(=O)[nH]c1SCc1cccc(-c2nnn[nH]2)c1` [Ex. 54, 2-(3-(1H-tetrazol-5-yl)benzylthio)-6-oxo-4-(thiophen-3-yl)-1,6-dihydropyridine-3-carbonitrile]: the IC50 was 9 nM. `Cc1cccc(-c2cc(=O)[nH]c(SCc3cccc(-c4nnn[nH]4)c3)c2C#N)c1` [Ex. 55, 2-((3-(1H-tetrazol-5-yl)benzyl)thio)-6-oxo-4-(m-tolyl)-1,6-dihydropyridine-3-carbonitrile]: the IC50 was 3 nM.

For `Cc1cc(=O)[nH]c(SCc2cccc(C(=O)O)c2)c1C#N` [Ex. 56, 3-(((3-cyano-4-methyl-6-oxo-1,6-dihydropyridin-2-yl)thio)methyl)benzoic acid], the IC50 amounted to 6750 nM.

On to `Cc1cc(=O)[nH]c(SCC(=O)O)c1C#N` [reference compound], for which the IC50 was determined as 2990 nM.
